Activity calls are given as the source filed them. No cut-off for these calls is given here.
Assays:
HL-60(TB) = assay: Antitumor activity against human HL-60(TB) cells assessed as cell growth inhibition at 10 uM incubated for 48 hrs by sulforhodamine B assay; format: functional; conditions: read-out: GI
K562 = assay: Antitumor activity against human K562 cells assessed as cell growth inhibition at 10 uM incubated for 48 hrs by sulforhodamine B assay; format: functional; conditions: read-out: GI
MOLT-4 = assay: Antitumor activity against human MOLT4 cells assessed as cell growth inhibition at 10 uM incubated for 48 hrs by sulforhodamine B assay; format: functional; conditions: read-out: GI
EKVX = assay: Antitumor activity against human EKVX cells assessed as cell growth inhibition at 10 uM incubated for 48 hrs by sulforhodamine B assay; format: functional; conditions: read-out: GI
NCI-H226 = assay: Antitumor activity against human NCI-H226 assessed as cell growth inhibition at 10 uM incubated for 48 hrs by sulforhodamine B assay; format: functional; conditions: read-out: GI
HCC 2998 = assay: Antitumor activity against human HCC2998 cells assessed as cell growth inhibition at 10 uM incubated for 48 hrs by sulforhodamine B assay; format: functional; conditions: read-out: GI
HCT-15 = assay: Antitumor activity against human HCT15 cells assessed as cell growth inhibition at 10 uM incubated for 48 hrs by sulforhodamine B assay; format: functional; conditions: read-out: GI
SF-268 = assay: Antitumor activity against human SF268 cells assessed as cell growth inhibition at 10 uM incubated for 48 hrs by sulforhodamine B assay; format: functional; conditions: read-out: GI
M14 = assay: Antitumor activity against human M14 cells assessed as cell growth inhibition at 10 uM incubated for 48 hrs by sulforhodamine B assay; format: functional; conditions: read-out: GI
SK-MEL-28 = assay: Antitumor activity against human SK-MEL-28 cells assessed as cell growth inhibition at 10 uM incubated for 48 hrs by sulforhodamine B assay; format: functional; conditions: read-out: GI
IGROV-1 = assay: Antitumor activity against human IGROV1 cells assessed as cell growth inhibition at 10 uM incubated for 48 hrs by sulforhodamine B assay; format: functional; conditions: read-out: GI
OVCAR-8 = assay: Antitumor activity against human OVCAR-8 cells assessed as cell growth inhibition at 10 uM incubated for 48 hrs by sulforhodamine B assay; format: functional; conditions: read-out: GI
SK-OV-3 = assay: Antitumor activity against human SK-OV-3 cells assessed as cell growth inhibition at 10 uM incubated for 48 hrs by sulforhodamine B assay; format: functional; conditions: read-out: GI
A498 = assay: Antitumor activity against human A498 cells assessed as cell growth inhibition at 10 uM incubated for 48 hrs by sulforhodamine B assay; format: functional; conditions: read-out: GI
ACHN = assay: Antitumor activity against human ACHN cells assessed as cell growth inhibition at 10 uM incubated for 48 hrs by sulforhodamine B assay; format: functional; conditions: read-out: GI
SN12C = assay: Antitumor activity against human SN12C cells assessed as cell growth inhibition at 10 uM incubated for 48 hrs by sulforhodamine B assay; format: functional; conditions: read-out: GI
UO-31 = assay: Antitumor activity against human UO-31 cells assessed as cell growth inhibition at 10 uM incubated for 48 hrs by sulforhodamine B assay; format: functional; conditions: read-out: GI
MDA-MB-231 = assay: Antitumor activity against human MDA-MB-231/ATCC cells assessed as cell growth inhibition at 10 uM incubated for 48 hrs by sulforhodamine B assay; format: functional; conditions: read-out: GI
BT-549 = assay: Antitumor activity against human BT-549 cells assessed as cell growth inhibition at 10 uM incubated for 48 hrs by sulforhodamine B assay; format: functional; conditions: read-out: GI
MDA-MB-468 = assay: Antitumor activity against human MDA-MB-468 cells assessed as cell growth inhibition at 10 uM incubated for 48 hrs by sulforhodamine B assay; format: functional; conditions: read-out: GI
A549 [1] = assay: Cytotoxicity against human A549/ATCC assessed as reduction in cell viability at 100 uM after 48 hrs by MTT assay; format: functional
A549 [2] = assay: Cytotoxicity against human A549/ATCC assessed as reduction in cell viability at 0.01 uM after 48 hrs by MTT assay; format: functional
HEK293 = assay: Cytotoxicity against human HEK293 assessed as reduction in cell viability at 100 uM after 48 hrs by MTT assay; format: cell-based; conditions: hek293, 48 h
Calf thymus DNA [3] = assay: Binding affinity to calf thymus DNA assessed as binding constant by UV-Vis absorption spectrophotometric method based Benesi-Hildebrand equation analysis; format: nucleic-acid assay; conditions: Bos taurus
Calf thymus DNA [4] = assay: Binding affinity to calf thymus DNA assessed as DNA intercalation by measuring increase in melting temperature of DNA at 10 uM by thermal denaturation based spectrophotometric analysis; format: nucleic-acid assay; conditions: Bos taurus
Calf thymus DNA [5] = assay: Binding affinity to calf thymus DNA assessed as quenching constant by fluorescence emission spectroscopic analysis; format: nucleic-acid assay; conditions: Bos taurus
Calf thymus DNA [6] = assay: Binding affinity to calf thymus DNA assessed as binding constant by fluorescence emission spectroscopic analysis; format: nucleic-acid assay; conditions: Bos taurus
Calf thymus DNA [7] = assay: Binding affinity to calf thymus DNA assessed as Stern-Volmer quenching constant by ethidium bromide competitive displacement assay; format: nucleic-acid assay; conditions: Bos taurus
Calf thymus DNA [8] = assay: Binding affinity to calf thymus DNA (unknown origin) assessed as binding constant by ethidium bromide competitive displacement assay; format: nucleic-acid assay; conditions: Bos taurus
Calf thymus DNA [9] = assay: Binding affinity to calf thymus DNA assessed as DNA intercalation by measuring increase in intensity of CD band at 281 nm at 1 uM by CD spectroscopy; format: nucleic-acid assay; conditions: Bos taurus
DNA = assay: Binding affinity to human DNA in blood assessed as quenching constant by fluorescence emission spectrum analysis; format: tissue-based
Albumin [10] = molecular target: T1, Albumin (Bos taurus, UniProt P02769); assay: Binding affinity to bovine serum albumin assessed as increase in absorption intensity at 280 nm at 0-10 uM by UV-vis absorption spectral titration analysis; format: ADME, cell-free; conditions: cattle
Albumin [11] = molecular target: T1, Albumin; assay: Binding affinity to bovine serum albumin assessed as formation of new absorption band at 400 nm at 0-10 uM by UV-vis absorption spectral titration analysis; format: ADME, cell-free; conditions: cattle
Albumin [12] = molecular target: T1, Albumin; assay: Binding affinity to bovine serum albumin assessed as quenching constant at 298K by fluorescence emission spectrum analysis; format: ADME, cell-free; conditions: cattle
Albumin [13] = molecular target: T1, Albumin; assay: Binding affinity to bovine serum albumin assessed as quenching constant at 308K by fluorescence emission spectrum analysis; format: ADME, cell-free; conditions: cattle
Albumin [14] = molecular target: T1, Albumin; assay: Binding affinity to bovine serum albumin assessed as quenching constant at 318K by fluorescence emission spectrum analysis; format: ADME, cell-free; conditions: cattle
Albumin [15] = molecular target: T1, Albumin; assay: Binding affinity to bovine serum albumin assessed as binding constant at 308K by fluorescence emission spectrum analysis; format: ADME, cell-free; conditions: cattle
Albumin [16] = molecular target: T1, Albumin; assay: Binding affinity to bovine serum albumin assessed as hydrophobic interaction by measuring change in entropy at 298K by thermodynamic based analysis; format: ADME, cell-free; conditions: cattle
Albumin [17] = molecular target: T1, Albumin; assay: Binding affinity to bovine serum albumin assessed as spontaneous interaction by measuring change in gibbs free energy at 298K by thermodynamic based analysis; format: ADME, cell-free; conditions: cattle
Albumin [18] = molecular target: T1, Albumin; assay: Binding affinity to bovine serum albumin assessed as spontaneous interaction by measuring change in gibbs free energy at 308K by thermodynamic based analysis; format: ADME, cell-free; conditions: cattle
Albumin [19] = molecular target: T2, Albumin (Homo sapiens, UniProt P02768); assay: Binding affinity to human serum albumin assessed as increase in peak absorption intensity at 280 nm at 0-7 uM by UV-Vis absorption spectroscopy; format: ADME, cell-free; conditions: 0.28 µM
Albumin [20] = molecular target: T2, Albumin; assay: Binding affinity to human serum albumin assessed as decrease in emission peak intensity band at 348 nm at 0-13 uM by fluorescence emission spectroscopy; format: ADME, cell-free; conditions: 0.348 µM
Albumin [21] = molecular target: T2, Albumin; assay: Binding affinity to human serum albumin assessed as Stern-Volmer quenching constant by fluorescence emission spectroscopy; format: ADME, cell-free
Albumin [22] = molecular target: T2, Albumin; assay: Binding affinity to human serum albumin assessed as binding constant by fluorescence emission spectroscopy; format: ADME, cell-free

T1 sequence (P02769 whole entry): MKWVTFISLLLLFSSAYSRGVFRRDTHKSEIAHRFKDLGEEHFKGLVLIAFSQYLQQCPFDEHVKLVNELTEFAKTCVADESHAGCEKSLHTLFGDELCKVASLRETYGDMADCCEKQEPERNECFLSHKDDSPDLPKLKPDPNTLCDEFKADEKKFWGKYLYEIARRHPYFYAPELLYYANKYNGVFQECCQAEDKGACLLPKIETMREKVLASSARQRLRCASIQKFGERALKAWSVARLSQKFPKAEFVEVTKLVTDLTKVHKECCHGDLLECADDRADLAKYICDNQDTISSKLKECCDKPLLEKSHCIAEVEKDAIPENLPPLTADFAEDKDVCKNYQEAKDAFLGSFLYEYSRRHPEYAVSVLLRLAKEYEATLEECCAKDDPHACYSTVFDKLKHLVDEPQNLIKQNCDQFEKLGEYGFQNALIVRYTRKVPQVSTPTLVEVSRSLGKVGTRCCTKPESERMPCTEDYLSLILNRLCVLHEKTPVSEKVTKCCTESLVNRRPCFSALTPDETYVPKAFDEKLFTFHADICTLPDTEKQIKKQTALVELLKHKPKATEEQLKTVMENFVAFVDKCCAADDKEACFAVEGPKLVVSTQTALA
T2 sequence (P02768 whole entry): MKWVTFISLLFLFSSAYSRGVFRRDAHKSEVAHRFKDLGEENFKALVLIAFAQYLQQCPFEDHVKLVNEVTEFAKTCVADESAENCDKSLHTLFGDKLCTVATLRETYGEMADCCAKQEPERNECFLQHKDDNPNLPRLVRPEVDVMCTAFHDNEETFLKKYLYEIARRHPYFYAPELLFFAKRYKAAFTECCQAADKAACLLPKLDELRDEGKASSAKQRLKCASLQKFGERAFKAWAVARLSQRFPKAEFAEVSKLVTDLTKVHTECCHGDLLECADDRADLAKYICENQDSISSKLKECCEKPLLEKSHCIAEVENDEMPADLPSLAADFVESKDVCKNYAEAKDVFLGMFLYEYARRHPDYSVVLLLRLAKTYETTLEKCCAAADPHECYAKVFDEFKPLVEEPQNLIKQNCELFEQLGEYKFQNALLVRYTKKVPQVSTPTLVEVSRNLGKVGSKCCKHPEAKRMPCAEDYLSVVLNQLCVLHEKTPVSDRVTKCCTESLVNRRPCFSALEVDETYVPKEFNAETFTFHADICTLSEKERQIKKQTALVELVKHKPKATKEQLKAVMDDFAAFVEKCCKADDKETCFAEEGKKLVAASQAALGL

SMILES: O=C1NC(=O)/C(=C/c2ccc(-c3nc4c5ccccc5c5ccccc5c4[nH]3)cc2)S1
- inhibition of growth at 10 µM (HL-60(TB)): 57.7%
- inhibition of growth at 10 µM (K562): 68.1%
- inhibition of growth at 10 µM (MOLT-4): 47.1%
- inhibition of growth at 10 µM (EKVX): 11.5%
- inhibition of growth at 10 µM (NCI-H226): < 10%
- inhibition of growth at 10 µM (HCC 2998): < 10%
- inhibition of growth at 10 µM (HCT-15): 50%
- inhibition of growth at 10 µM (SF-268): 12.3%
- inhibition of growth at 10 µM (M14): 47.9%
- inhibition of growth at 10 µM (SK-MEL-28): 19.1%
- inhibition of growth at 10 µM (IGROV-1): < 10%
- inhibition of growth at 10 µM (OVCAR-8): 21.7%
- inhibition of growth at 10 µM (SK-OV-3): < 10%
- inhibition of growth at 10 µM (A498): 93%
- inhibition of growth at 10 µM (ACHN): 33.4%
- inhibition of growth at 10 µM (SN12C): < 10%
- inhibition of growth at 10 µM (UO-31): 25.5%
- inhibition of growth at 10 µM (MDA-MB-231): 15.6%
- inhibition of growth at 10 µM (BT-549): 63.7%
- inhibition of growth at 10 µM (MDA-MB-468): 51.7%
- Activity (A549 [1]): 90%
- Activity (A549 [2]): 42%
- Activity (HEK293): 15%
- Kb (Calf thymus DNA [3]): 2.95 10^4/M
- ΔTm (Calf thymus DNA [4]): 7.1 °C
- Kq (Calf thymus DNA [5]): 1.88 10^11/M/s
- Kb (Calf thymus DNA [6]): 1.95 10^5/M
- KSV (Calf thymus DNA [7]): 6.53 10^4/M
- Kb (Calf thymus DNA [8]): 1 10^5/M
- Activity (Calf thymus DNA [9]): Active
- Kq (DNA): 3.46 10^11/M/s
- Activity (Albumin [10]): Active
- Activity (Albumin [11]): Active
- Kq (Albumin [12]): 8.42 10^13/M/sec
- Kq (Albumin [13]): 8.15 10^13/M/sec
- Kq (Albumin [14]): 3.51 10^13/M/sec
- Kb (Albumin [15]): 3.56 10^6/M
- deltaS (Albumin [16]): 20.43 cal/mol.K
- deltaG (Albumin [17]): -9 kcal/mol
- deltaG (Albumin [18]): -9.21 kcal/mol
- Activity (Albumin [19]): Active
- Activity (Albumin [20]): Active
- KSV (Albumin [21]): 3.01 10^6/M
- Kb (Albumin [22]): 7.29 10^6/M

Reference: ChEMBL document CHEMBL4665624, “Synthesis of 5-(4-(1H-phenanthro[9,10-d]imidazol-2-yl)benzylidene)thiazolidine-2,4-dione as promising DNA and serum albumin-binding agents and evaluation of antitumor activity” (Eur J Med Chem, 2019)
